Calls of active or inactive are those of the source.
Columns and labels:
[1] = Trypanosoma cruzi growth suppression in host cells – NIH3T3 host cells, beta-gal luminescence, confirmation (AID 2044); type: functional, cell-based;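 further: intracellular parasites grown in NIH/3T3 mouse fibroblasts as host cells; luminescent beta-galactosidase reporter signal from transgenic T. cruzi replicating inside host cells; inhibitors lower the luminescence signal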
[2] = tested on: HEK293; assay: EBV LMP1 TES2 canonical NF-kB signalling blockers – cell-based, HEK293, luciferase, cherry-pick, dose response (AID 588343); type: functional; conditions: Homo sapiens
[3] = tested on: INS1; assay: INS-1E survival protection against cytokine death – cell-based, luminescence, retest, dose response (AID 449756); type: functional; conditions: Rattus norvegicus;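 further: cell death triggered by IL-1 beta plus TNF-alpha plus IFN-gamma mixture; protective hits raise ATP signal compared with cytokine alone wells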
[4] = NIH3T3 cell viability loss – ATP luminescence, mouse fibroblasts, counter-screen, dose response (AID 2010); type: functional, cell-based;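 further: cells exposed to compound for about 90 hours before reading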
[5] = Luminescence-based counterscreen assay for KLF5 inhibitors: dose response cell-based high throughput screening assay to identify cytotoxic compounds using the IEC-6 intestinal epithelial cell line. [Related pubchem assays: 1700 (Primary screen.), 1834 (Confirmation screen.), 1858 (Summary AID.), 1905 (Counterscreen.)]; type: functional
[6] = cells; type: functional, cell-based
[7] = molecular target: Nonstructural protein 1 (Influenza A virus, UniProt Q194T2); type: functional, Influenza A virus (A/California/07/2009(H1N1))
[8] = cells; type: functional, cell-based; remark: listed apart in the source
[9] = NIH-3T3 fibroblast cytotoxicity, dose response, cytotoxicity control, cell-based, fluorescence, Alamar Blue, secondary assay (AID 2327); type: functional;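 further: NIH-3T3 mouse fibroblasts cultured with fluconazole at 8 µg/mL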
[10] = fluconazole-exposed Candida albicans growth modulators – fluorescence, retest, confirmation (AID 2467); type: functional, cell-based
[11] = molecular target: T1, Estrogen receptor (Homo sapiens, UniProt P03372);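 further: potency for inhibiting coactivator peptide recruitment to the receptor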
T1 sequence (P03372 whole entry): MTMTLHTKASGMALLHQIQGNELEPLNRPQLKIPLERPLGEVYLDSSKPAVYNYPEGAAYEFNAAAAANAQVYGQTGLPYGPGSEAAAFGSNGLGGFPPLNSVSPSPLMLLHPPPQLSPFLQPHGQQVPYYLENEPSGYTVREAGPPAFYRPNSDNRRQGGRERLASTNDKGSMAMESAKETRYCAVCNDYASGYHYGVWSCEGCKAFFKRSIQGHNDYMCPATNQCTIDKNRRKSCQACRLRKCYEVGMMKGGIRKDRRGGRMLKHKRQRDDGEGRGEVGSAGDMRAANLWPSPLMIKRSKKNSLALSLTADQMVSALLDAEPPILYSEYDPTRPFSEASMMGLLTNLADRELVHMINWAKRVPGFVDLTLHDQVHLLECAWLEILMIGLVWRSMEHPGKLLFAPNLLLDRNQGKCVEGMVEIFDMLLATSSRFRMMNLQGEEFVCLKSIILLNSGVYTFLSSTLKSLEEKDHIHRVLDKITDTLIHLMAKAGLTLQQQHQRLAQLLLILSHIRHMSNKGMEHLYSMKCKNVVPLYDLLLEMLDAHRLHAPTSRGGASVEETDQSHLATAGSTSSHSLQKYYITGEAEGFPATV

[12] = molecular target: T2, Estrogen receptor beta (Homo sapiens, UniProt Q92731); assay: blockers of SRC-3 recruitment to ERβ – biochemical, ELISA, streptavidin-HRP readout, orthogonal assay, confirmation (AID 1060)
[13] = molecular target: T2, Estrogen receptor beta
[14] = molecular target: Neuropeptide Y receptor type 1 (Homo sapiens, UniProt P25929); type: functional;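 further: HEK293 cells with a CNG channel challenged with NPY then isoproterenol; potency as antagonist that reverses NPY suppression of cAMP signal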
[15] = viability loss in HEK293T cells – cell-based, cherry-picks, cytotoxicity control for HIV Vif inhibitor project, dose response (AID 652208); type: functional
[16] = molecular target: Neuropeptide Y receptor type 2 (Homo sapiens, UniProt P49146); type: functional, cell-based;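 further: HEK293 cells expressing the receptor and a CNG channel; stimulus was NPY near EC95 followed by isoproterenol to raise cAMP; antagonist potency measured as restoring cAMP signal that NPY suppresses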
[17] = Luminescence Cell-Based Dose Retest to Confirm Inhibitors of Cancer Stem Cells. [Related pubchem assays (depositor defined):AID2717, AID2721]; type: functional; conditions: Homo sapiens
[18] = toxicity toward HEK293 cells – cell-based, dry powder samples, cytotoxicity control, dose response (AID 720567); type: functional
[19] = tested on: HeLa; assay: Cytotoxicity counterscreen assay for transcriptional activators of heat shock protein 70 (Hsp70). [Related pubchem assays: 1203, 1252 ]; type: functional; conditions: Homo sapiens;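 further: cells exposed to compound for 16 hours before readout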
[20] = molecular target: T3, High affinity choline transporter 1 (Homo sapiens, UniProt Q9GZV3); assay: human choline transporter blockers, potency – cell-based, 10-point CRC, membrane potential dye, dose response (AID 588401); type: functional;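 further: membrane potential dye fluorescence of choline-evoked depolarization via CHT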
T3 sequence (Q9GZV3 whole entry): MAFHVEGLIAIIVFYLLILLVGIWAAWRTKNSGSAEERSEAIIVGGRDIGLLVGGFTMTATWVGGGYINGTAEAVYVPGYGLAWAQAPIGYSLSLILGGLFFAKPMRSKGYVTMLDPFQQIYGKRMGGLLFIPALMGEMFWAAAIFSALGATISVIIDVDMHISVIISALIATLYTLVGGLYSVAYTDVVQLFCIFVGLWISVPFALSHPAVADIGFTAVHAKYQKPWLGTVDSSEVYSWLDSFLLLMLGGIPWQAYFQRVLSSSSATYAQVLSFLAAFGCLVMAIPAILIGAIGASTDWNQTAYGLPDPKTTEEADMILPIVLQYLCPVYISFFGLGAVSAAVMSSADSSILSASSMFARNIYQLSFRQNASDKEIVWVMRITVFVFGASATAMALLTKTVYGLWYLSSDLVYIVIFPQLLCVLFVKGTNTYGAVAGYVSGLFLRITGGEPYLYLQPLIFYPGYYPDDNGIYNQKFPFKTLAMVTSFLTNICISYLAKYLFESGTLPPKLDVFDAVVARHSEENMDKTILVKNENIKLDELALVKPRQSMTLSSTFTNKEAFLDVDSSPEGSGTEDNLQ

[21] = tested on: Vero; assay: viability of Vero cells under compound – cytotoxicity control for flavivirus capping enzyme inhibitors (AID 588742); type: functional; conditions: Chlorocebus sabaeus
[22] = reduction of Shn3 3'UTR-driven luciferase in osteoblasts – cell-based, Clone20 osteoblasts, firefly luciferase, cherry-picked, dose response (AID 624132); type: functional;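 further: firefly luciferase luminescence from reporter carrying the Shn3 3'UTR in osteoblasts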
[23] = molecular target: T4, Protein RecA (Mycobacterium tuberculosis, UniProt P9WHJ3); assay: Fluorescence Cell-Free Homogeneous Dose Retest to Identify Inhibitors of RecA-Intein Splicing Activity. [Related pubchem assays (depositor defined):AID2097, AID2223, AID489010, AID492950]; type: functional
T4 sequence (P9WHJ3 whole entry): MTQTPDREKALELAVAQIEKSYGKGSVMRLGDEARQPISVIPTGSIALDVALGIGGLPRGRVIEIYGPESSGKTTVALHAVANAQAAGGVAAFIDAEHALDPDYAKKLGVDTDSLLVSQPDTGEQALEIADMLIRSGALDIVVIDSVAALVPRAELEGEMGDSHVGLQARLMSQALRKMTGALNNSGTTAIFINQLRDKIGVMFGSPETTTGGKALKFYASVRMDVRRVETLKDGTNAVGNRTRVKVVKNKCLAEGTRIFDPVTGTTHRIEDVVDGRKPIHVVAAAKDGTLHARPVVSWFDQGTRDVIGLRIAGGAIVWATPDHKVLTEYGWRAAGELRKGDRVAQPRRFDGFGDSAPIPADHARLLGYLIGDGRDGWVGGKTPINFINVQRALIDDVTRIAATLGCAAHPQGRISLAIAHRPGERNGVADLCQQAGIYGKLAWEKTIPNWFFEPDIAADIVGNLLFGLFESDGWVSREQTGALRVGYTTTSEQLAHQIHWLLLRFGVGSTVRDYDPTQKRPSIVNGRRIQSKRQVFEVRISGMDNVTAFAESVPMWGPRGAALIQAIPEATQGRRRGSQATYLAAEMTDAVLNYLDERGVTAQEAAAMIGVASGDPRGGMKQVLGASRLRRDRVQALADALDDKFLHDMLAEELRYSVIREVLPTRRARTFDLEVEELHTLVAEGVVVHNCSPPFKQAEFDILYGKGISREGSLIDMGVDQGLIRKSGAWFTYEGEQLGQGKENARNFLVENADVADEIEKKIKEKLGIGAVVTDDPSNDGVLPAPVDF

[24] = molecular target: Hepatocyte nuclear factor 4-alpha (Homo sapiens, UniProt P41235); type: functional, cell-based;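 further: biochemical luminescence-based dose-response counterscreen measuring inhibition of HNF4 dimerization, run alongside a screen for blockers of ABHD5–perilipin-5 interaction; split luciferase complementation of HNF4 fusion proteins in cell lysate measuring dimerization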
[25] = non-specific 3'UTR reporter inhibition in Clone20-Shn3RL – cell-based, Renilla luciferase, cherry-picked, counter-screen for Shn3 inhibitor project, dose response (AID 624133); type: functional
[26] = molecular target: Potassium voltage-gated channel subfamily KQT member 2 (Rattus norvegicus, UniProt O88943, W236L); assay: potentiation of rat KCNQ2 current – cell-based, automated electrophysiology, mechanism study for KCNQ2 potentiator project, dose response (AID 2603); type: functional
[27] = molecular target: Genome polyprotein (dengue virus type 2, UniProt P29990); assay: flavivirus cap methylation enzyme inhibition – biochemical, confirmation dose response, primary screen (AID 588689); type: functional
[28] = molecular target: T3, High affinity choline transporter 1; assay: human choline transporter blockers, potency – cell-based, 5-point CRC, membrane potential dye, dose response (AID 504840); type: functional
[29] = molecular target: T5, Replicative DNA helicase DnaB (Mycobacterium tuberculosis, UniProt P9WMR3); assay: DnaB intein splicing inhibitors, dose response, biochemical, cell-free fluorescence (AID 449749); type: functional
T5 sequence (P9WMR3 whole entry): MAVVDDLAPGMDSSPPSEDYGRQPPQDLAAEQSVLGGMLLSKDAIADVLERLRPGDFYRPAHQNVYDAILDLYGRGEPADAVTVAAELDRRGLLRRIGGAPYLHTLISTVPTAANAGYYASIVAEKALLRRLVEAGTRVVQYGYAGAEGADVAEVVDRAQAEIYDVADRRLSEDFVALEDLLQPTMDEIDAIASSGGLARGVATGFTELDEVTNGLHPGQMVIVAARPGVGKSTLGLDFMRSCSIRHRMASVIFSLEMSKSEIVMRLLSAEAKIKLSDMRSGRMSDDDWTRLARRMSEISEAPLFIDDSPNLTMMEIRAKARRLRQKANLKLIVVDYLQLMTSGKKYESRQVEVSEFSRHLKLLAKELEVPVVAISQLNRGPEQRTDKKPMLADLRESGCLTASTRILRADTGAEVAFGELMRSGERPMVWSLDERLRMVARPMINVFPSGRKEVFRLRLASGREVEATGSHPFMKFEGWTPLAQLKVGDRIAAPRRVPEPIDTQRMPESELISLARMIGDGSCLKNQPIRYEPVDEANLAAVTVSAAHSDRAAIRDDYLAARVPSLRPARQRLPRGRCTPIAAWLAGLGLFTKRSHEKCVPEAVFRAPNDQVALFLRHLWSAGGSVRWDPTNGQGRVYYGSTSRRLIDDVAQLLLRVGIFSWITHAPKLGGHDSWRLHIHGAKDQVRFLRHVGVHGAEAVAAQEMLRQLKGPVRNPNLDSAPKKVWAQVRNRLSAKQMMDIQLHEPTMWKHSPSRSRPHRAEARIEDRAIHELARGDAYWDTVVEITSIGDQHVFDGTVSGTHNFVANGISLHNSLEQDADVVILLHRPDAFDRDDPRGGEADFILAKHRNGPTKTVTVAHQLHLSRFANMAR

[30] = Intein inhibitors as potential Tuberculosis drugs, a cytotoxicity screen. [Related pubchem assays (depositor defined):AID2221, AID2223, AID434968, AID435010, AID449749, AID449750, AID489010]; type: functional
[31] = molecular target: T6, Heat shock factor protein 1 (Mus musculus, UniProt P38532); assay: decrease of HSF1-responsive luciferase luminescence – cell-based, NIH3T3, dose retest, confirmation (AID 2382); type: functional;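 further: NIH3T3 fibroblasts with HSF1-driven luciferase reporter stressed by proteasome inhibitor MG132; luminescence from HSF1-driven luciferase expression after 8 hours of MG132 stress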
T6 sequence (P38532 whole entry): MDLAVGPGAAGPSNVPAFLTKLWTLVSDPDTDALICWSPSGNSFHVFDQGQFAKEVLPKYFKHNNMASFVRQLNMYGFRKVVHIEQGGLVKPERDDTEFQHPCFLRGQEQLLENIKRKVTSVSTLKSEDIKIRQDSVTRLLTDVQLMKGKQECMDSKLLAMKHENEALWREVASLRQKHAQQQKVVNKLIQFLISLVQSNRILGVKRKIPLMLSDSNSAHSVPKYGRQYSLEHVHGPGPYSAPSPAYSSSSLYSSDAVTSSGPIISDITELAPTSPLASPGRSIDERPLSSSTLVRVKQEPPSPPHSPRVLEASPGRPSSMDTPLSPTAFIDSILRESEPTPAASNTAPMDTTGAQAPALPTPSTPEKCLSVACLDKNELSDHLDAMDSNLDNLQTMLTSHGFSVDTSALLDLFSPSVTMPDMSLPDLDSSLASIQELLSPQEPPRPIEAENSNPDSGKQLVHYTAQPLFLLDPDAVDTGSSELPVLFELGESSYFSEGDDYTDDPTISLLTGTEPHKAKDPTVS

[32] = cells

T2 sequence (Q92731 whole entry): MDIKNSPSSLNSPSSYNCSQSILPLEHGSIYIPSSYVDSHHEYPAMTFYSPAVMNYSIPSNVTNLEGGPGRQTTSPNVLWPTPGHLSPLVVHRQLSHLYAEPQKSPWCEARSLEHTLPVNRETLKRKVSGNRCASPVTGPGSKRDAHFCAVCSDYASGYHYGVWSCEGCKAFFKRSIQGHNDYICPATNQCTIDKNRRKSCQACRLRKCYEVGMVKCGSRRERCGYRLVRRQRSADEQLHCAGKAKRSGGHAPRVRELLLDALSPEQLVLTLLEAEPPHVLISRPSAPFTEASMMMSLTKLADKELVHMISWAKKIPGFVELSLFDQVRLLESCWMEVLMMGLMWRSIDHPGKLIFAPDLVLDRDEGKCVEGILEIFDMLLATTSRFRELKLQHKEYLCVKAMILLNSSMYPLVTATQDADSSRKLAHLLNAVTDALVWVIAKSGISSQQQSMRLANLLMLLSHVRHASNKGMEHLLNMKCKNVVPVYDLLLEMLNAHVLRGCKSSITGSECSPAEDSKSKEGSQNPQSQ
Genome polyprotein, sequence (P29990 2492-3391 limits assumed): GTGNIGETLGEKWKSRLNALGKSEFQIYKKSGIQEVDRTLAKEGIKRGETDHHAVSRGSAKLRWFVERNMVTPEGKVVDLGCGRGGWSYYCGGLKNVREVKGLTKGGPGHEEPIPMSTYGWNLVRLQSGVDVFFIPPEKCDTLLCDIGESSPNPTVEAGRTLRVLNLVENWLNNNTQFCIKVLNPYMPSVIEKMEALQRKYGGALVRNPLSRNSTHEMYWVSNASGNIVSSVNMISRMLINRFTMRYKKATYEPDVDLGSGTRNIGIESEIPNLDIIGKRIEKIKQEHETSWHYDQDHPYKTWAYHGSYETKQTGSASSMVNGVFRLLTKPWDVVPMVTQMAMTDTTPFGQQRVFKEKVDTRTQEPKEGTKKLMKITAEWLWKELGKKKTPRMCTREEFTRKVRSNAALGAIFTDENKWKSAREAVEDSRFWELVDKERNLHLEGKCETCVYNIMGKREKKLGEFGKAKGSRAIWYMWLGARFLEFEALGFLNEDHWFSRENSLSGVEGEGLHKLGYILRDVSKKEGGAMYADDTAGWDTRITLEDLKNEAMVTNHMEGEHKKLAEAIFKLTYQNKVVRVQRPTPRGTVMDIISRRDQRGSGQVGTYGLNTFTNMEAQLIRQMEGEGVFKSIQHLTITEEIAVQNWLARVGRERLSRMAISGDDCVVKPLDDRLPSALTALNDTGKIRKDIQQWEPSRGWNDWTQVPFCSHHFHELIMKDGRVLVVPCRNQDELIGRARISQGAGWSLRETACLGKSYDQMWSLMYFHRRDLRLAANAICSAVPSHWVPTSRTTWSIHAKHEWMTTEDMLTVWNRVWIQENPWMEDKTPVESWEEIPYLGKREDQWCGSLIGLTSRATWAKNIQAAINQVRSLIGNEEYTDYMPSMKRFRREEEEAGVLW
Potassium voltage-gated channel subfamily KQT member 2, sequence (O88943 whole entry W236L): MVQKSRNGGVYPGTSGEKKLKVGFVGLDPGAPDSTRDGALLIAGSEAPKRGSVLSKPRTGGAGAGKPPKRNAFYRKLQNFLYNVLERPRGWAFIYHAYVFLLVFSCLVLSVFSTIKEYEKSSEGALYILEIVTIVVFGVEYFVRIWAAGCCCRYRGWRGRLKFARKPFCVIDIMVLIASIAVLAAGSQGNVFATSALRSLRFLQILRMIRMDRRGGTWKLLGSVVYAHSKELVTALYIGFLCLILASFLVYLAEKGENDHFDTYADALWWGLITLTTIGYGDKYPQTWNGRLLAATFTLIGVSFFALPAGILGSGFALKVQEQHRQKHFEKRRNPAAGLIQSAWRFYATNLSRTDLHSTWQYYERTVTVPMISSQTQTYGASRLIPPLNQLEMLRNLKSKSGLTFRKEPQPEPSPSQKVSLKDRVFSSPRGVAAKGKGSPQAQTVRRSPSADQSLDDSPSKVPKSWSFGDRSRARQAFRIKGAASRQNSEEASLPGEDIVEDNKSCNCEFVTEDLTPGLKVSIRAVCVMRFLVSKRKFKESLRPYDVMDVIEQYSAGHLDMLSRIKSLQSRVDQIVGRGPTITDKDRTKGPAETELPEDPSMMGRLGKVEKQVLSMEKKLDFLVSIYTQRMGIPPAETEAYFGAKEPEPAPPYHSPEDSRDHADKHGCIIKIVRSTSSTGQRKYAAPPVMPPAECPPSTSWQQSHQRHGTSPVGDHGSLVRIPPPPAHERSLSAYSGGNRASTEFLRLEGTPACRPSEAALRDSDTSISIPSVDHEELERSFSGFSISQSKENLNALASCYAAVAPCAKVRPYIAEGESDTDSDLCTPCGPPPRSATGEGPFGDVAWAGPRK
Hepatocyte nuclear factor 4-alpha, sequence (P41235 whole entry, the tested form may be a part): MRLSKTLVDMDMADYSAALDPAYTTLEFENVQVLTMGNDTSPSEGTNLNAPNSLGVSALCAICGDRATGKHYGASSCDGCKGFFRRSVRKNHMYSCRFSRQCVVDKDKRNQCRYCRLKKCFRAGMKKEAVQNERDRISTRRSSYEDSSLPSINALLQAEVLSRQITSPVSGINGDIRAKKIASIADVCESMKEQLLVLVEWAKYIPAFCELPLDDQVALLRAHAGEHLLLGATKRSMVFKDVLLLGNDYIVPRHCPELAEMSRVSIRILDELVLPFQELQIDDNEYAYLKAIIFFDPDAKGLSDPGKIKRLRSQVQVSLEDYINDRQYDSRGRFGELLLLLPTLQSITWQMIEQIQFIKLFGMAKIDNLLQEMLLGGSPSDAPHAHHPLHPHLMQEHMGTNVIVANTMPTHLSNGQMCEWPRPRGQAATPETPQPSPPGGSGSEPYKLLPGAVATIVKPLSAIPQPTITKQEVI
Neuropeptide Y receptor type 2, sequence (P49146 whole entry): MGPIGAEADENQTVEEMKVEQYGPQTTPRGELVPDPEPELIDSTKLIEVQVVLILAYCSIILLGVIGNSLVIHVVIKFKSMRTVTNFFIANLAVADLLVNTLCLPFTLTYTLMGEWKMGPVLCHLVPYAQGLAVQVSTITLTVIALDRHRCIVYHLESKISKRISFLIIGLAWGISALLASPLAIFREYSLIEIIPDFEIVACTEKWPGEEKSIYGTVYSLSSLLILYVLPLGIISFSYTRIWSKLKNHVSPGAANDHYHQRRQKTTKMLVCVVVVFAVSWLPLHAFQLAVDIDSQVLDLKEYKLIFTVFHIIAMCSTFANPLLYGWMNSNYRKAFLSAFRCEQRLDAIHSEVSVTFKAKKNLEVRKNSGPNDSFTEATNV
Neuropeptide Y receptor type 1, sequence (P25929 whole entry): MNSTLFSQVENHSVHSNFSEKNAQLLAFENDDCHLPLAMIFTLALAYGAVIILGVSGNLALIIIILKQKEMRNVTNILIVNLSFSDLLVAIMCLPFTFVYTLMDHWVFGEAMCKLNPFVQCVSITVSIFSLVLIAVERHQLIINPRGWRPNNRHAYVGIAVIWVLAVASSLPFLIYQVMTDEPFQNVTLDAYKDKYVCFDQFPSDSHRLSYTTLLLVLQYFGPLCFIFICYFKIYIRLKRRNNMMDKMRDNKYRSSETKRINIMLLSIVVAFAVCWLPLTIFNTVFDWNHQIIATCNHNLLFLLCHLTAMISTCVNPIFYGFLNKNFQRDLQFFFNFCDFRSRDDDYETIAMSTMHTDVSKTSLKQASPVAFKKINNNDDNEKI
Nonstructural protein 1, sequence (Q194T2 whole entry): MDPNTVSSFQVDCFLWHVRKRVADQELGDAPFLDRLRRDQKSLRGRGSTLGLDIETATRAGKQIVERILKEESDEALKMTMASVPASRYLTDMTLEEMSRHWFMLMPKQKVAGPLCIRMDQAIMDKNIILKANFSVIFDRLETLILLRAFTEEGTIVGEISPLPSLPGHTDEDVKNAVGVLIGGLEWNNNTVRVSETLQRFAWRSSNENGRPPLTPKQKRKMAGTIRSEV

O=C(N/N=C/c1c(O)ccc2ccccc12)c1cccnc1
EC50 [1]: 3.14 µM (active)
AC50 [2]: 7.53 µM (active)
AC50 [3]: 0.794 µM (active)
EC50 [4]: 9.03 µM (active)
IC50 [5]: 3.67 µM (active)
EC50 [6]: > 350 µM (not active)
IC50 [7]: 12.1 µM (active)
EC50 [8]: 8.55 µM (active)
EC50 [9]: > 160 µM (inactive)
EC50 [10]: 1.3 µM (active)

O=Cc1ccc2oc3nc4n(c(=O)c3c(=O)c2c1)CCCS4
IC50 [11]: 17.8 µM (active)
IC50 [12]: > 50 µM (not active)
IC50 [13]: > 50 µM (not active)

Cc1ccc(CCC(=O)Nc2ncc(Cc3cc(Cl)ccc3Cl)s2)o1
IC50 [14]: 7.27 µM (active)
AC50 [15]: 34.7 µM (active)
IC50 [16]: 9.88 µM (active)
AC50 [17]: 0.251 µM (active)
AC50 [18]: 7.96 µM (active)

CCOc1ccc(NC(=O)c2ccc(NC(S)=NC3CC3)cc2)cc1
CC50 [19]: > 99 µM (not active)

CC(C)c1nnc(NC(=O)c2nc(S(=O)(=O)Cc3ccc(F)cc3)ncc2Cl)s1
IC50 [20]: 4.47 µM (active)
CC50 [21]: 27.1 µM (active)
AC50 [22]: 2.83 µM (active)
EC50 [23]: 2.73 µM (active)
IC50 [24]: 4.69 µM (active)
AC50 [25]: 4.34 µM (active)
EC50 [26]: 4.47 µM (active)
IC50 [27]: 96 µM (active)
IC50 [28]: 6.08 µM (active)
AC50 [29]: 3.54 µM (active)
CC50 [30]: 28.1 µM (active)
EC50 [31]: 3.33 µM (active)

Cc1c(Cc2ccccc2)c(=O)oc2cc(O)cc(O)c12
IC50 [32]: 36.1 µM (active)

Reference: ChEMBL document CHEMBL1201862, “PubChem BioAssay data set” (2004)
